The values below come from US10973245B2, “Immunomodulatory and growth promoting and controlling composition of intestinal microbiota undesirable bacteria and its use” (YESSINERGY HOLDING S/A, priority 2016, dated 2021).

Experiment [1] is described as follows: Piglet performance with growth promoting additives (Example 4). The class given is in vivo, PIC genetics. To be noted: piglets 22 to 64 days of age. Here is the method:
(§1) Composition of Example 4 was tested in piglets to evaluate their performance ratio in comparison with growth promoter antibiotic (GPA) and with sodium butyrate. All were added to the rations of the respective treatments as growth promoting additives.
(§2) Sixty-three piglets were weaned at 22 days of age, with a start average body weight of 5.48 kg, both sexes, PIC genetics. The animals were separated by sex and distributed into 3 treatments, with 7 replicates of 3 animals each, during the whole period (22 to 64 days of age). Diet was formulated without Zinc Oxide or any other antimicrobial.
(§3) T1: Basal Diet+GPA (colistin 8%—40 ppm)
(§4) T2: Basal Diet+Sodium Butyrate 30% (1 kg/t)
(§5) T3: Basal Diet+Composition of the Invention of Example 4 (2 kg/t)

The nature of experiment [2]: Diarrhea index in piglets (Example 4). The class given is in vivo, PIC genetics. Here is the method:
as §1, §2, §3, §4, §5

A short description of experiment [3]: Fatty acids in cecum of piglets (Example 4). The class given is in vivo, PIC genetics. How it is done:
as §1, §2, §3, §4, §5

The test system of experiment [4] is sulfite-reducing Clostridium. Description: Sulfite-reducing Clostridium CFU count in cecum fecal material of challenged chickens (Examples 8, 9, 10). The class given is in vivo. To be noted: cecum fecal material at 28 days; colony forming units. An excerpt:
Compositions of examples 8, 9 and 10 were used as growth promoting additives for growing chicken feeds, i.e., during the first 28 days of life, to evaluate the control of Salmonella heidelbergii. On the fourth day of life, 20% of the birds were inoculated with Salmonella heidelbergii. At the end of the 28 days, fecal material was collected from the cecum of the birds and the counting of colony forming units (CFUs) of Salmonella and sulfite-reducing Clostridium.
The treatments were as follows:
T1: Basal Diet+SH Challenge—WITHOUT GPA (growth promoting antibiotic)
T2: Basic Diet+SH+APC Challenge (Enramicima 8 ppm)
T3: Basal Diet+SH Challenge+Sodium Butyrate (1.5 kg/t of feed)
T4: Basal Diet+Composition of the Invention of Example 8—3 kg/t
T5: Basal Diet+Composition of the Invention of Example 9—3 kg/t
T6: Basal Diet+Composition of the Invention of Example 10—3 kg/t
T7: Basal Diet+Composition of the Invention of Example 9—3 kg/t+Probiotic

Experiment [5] can be described thus: Growth promoter additives in commercial broiler chicken diets (Examples 2 and 3 vs Zinc Bacitracin). The class given is in vivo, commercial broiler chickens. How it is done: (§6) Formulations of examples 2 and 3 were administered to commercial broiler chickens, with an inclusion of 2 kg per ton of feed. The results are shown in Tables 12 (Diets with Zinc Bacitracin Antibiotic, As Growth Promoter Additives), 13 (Diets with the Composition of Example 2, as Growth Promoter Additives) and 14 (Diets with the Composition of Example 3, As Growth Promoter Additive) below.
(§7) Note: (*)—Salmonella Control Efficiency Index, measured by conducting a ‘propé’ [shoe covers] drag swab tests. Antibiotic=100 (**)—Zinc Bacitracin

The next experiment has as its system Salmonella. Description: Salmonella Control Efficiency Index by 'propé' drag swab tests, commercial broiler chickens. The class given is in vivo. To be noted: Antibiotic=100. How it is done:
as §6, §7

Marks after values point to notes of the source that are not given here.

For the compound `CCCC(=O)[O-].[Na+]` [Sodium Butyrate], the “CA = feed conversion” value in experiment [1] is 2.07. Moreover, the Diarrhea index in experiment [2] (Grade I) is 22^b. In addition, in experiment [2] (Grade II), the Diarrhea index is listed as 33^ab. In addition, the Diarrhea index in experiment [2] (Grade III) is listed as 53^b. Moreover, in experiment [3], the “Fatty acids in Cecum: Acetic” value worked out at 0.38, the “Fatty acids in Cecum: Butyric” value amounted to 0.18, the “Fatty acids in Cecum: Propionic” value is 0.32^a and the “Fatty acids in Cecum: Total” value is 0.87. In addition, the “Sulfite-reducing Clostridium” value in experiment [4] turned out to be 4959.
Regarding Zinc Bacitracin, the “Feed Conversion” value turned out to be 1.69 in experiment [5] (Average of Productions 1-4); 1.72 in experiment [5] (Production 1); 1.71 in experiment [5] (Production 2); 1.60 in experiment [5] (Production 3); 1.72 in experiment [5] (Production 4). For the same compound, the “Final Average Body Weight” value in experiment [5] (Average of Productions 1-4) was 3.11 kgBW/bird; in experiment [5] (Production 1) it was 3.14 kgBW/bird; in experiment [5] (Production 2) it was 3.07 kgBW/bird; in experiment [5] (Production 3) it was 3.20 kgBW/bird; in experiment [5] (Production 4) it was 3.01 kgBW/bird. Also, the “Food Intake” value in experiment [5] (Average of Productions 1-4) turned out to be 5.159 kg/Bird; in experiment [5] (Production 1) it was 5.329 kg/Bird; in experiment [5] (Production 2), 5.167 kg/Bird; in experiment [5] (Production 3) it was 5.034 kg/Bird; in experiment [5] (Production 4), 5.105 kg/Bird. For the same compound, the “Control of Salmonella (Salmonella Control Efficiency Index)” value in the experiment on Salmonella (Average of Productions 1-4), in the experiment with Salmonella (Production 1), with Salmonella (Production 2), in the experiment with Salmonella (Production 3) and in the experiment on Salmonella (Production 4) was 100 each time.
